A short description of data set [1]: Caco-2 monolayer permeability screen. The conditions noted are these: human, Caco-2. As for the experimental part: (§1) Supplementary Table 3: Caco-2 permeability and BBB-PAMPA permeability
(§2) For CaCo-2 permeability assay, cells were incubated with 10 µM of these reagents in
(§3) buffers for 2 h, and the receiver side buffer is removed for analysis by LC/MS/MS. Efflux […]
(§4) LLOQ: Lower Limit of Quantification; Papp: apparent permeability.

A further data set deals with Caco-2 monolayer. Description: Caco-2 monolayer permeability screen. Here is the method: as §1, §2, §3, §4
The target of another data set is T1, GAPDH (Mus musculus, UniProt P16858).
T1 construct: GAPDH activity in primary neurons; endogenous in cells; host or cells: primary neurons (mouse cortical)
In words: GAPDH activity assay in primary neurons. The format is cell-based. As for the experimental part:
GAPDH activity was assessed using the GAPDH Activity Assay Kit (Biovision) according to the manufacture's instructions.

The test system of the next data set is tau P301S mice. Description: Chronic toxicity after 3 months oral gavage. The class given is in vivo, mouse. An excerpt:
[…]. […] […].

The next data set relates to 5XFAD mice. The conditions noted are these: 5 or 10 mg kg-1 oral; 1, 2, 4 h.
The next data set concerns the target CYP3A4 (Homo sapiens, UniProt P08684). In words: CYP inhibition screening in microsomes. The conditions noted are these: pH 7.4, probe midazolam.
The next data set concerns the target CYP2C19 (Homo sapiens, UniProt P33261). In words: CYP inhibition screening in microsomes. The conditions noted are these: pH 7.4.
Data set [2] in a line: Serum and brain level after chronic oral dosing. The conditions noted are these: tau P301S, mouse, in vivo, oral 10 mg kg-1d-1, 3 months, 1 hour after last dose.
Data set [3] concerns the target T2, δ-secretase (Homo sapiens, UniProt Q99538).
T2 construct: tested with purified active δ-secretase, IC50 values for the top 8 candidates were calculated; purchased Sino Biological (Beijing, China)
T2 sequence (Q99538 18-323 limits assumed): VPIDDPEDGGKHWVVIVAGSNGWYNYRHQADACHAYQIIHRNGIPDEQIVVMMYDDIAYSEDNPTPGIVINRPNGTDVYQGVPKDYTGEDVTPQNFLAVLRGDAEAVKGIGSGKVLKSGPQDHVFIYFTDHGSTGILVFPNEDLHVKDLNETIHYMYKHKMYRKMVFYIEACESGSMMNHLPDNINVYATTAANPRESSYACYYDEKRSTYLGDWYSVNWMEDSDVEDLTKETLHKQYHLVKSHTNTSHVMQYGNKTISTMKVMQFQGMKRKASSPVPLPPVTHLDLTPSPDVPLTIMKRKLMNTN
Description: IC50 assay with purified recombinant δ-secretase (AEP), substrate Cbz-Ala-Ala-Asn-AMC. The class given is biochemical. As for the experimental part:
δ-secretase – 50 nM enzyme was pre-incubated with inhibitor in assay buffer (50 mM Sodium Citrate pH 5.5, 0.1% CHAPS, 60 mM Na2HPO4, 1 mM EDTA) for 10 min at 37 °C. The reaction was initiated on addition of 10 μM Cbz-Ala-Ala-Asn-AMC (Bachem).
To determine the IC50 values of the compounds towards δ-secretase, cathepsin-S, cathepsin-L, caspase-3 and caspase-8, purified recombinant enzyme was incubated in appropriate assay buffers in the presence of increasing concentrations of inhibitors. The formation of fluorescent product was monitored in duplicate reactions and the data were fit to appropriate equations to calculate the IC50 values.

The target of data set [4] is T2, δ-secretase. Description: DTT and L-cysteine reversibility of δ-secretase inhibition. The format is biochemical. The conditions noted are these: 10 mM DTT or L-cysteine, inhibitor at its IC50.
The mark [5] stands for this setting: purified recombinant enzyme, mean±s.d., read-out: IC50 AEP (δ-secretase).

Like-named read-outs stand apart in the source and are kept apart here.

CYP2C19, sequence (P33261 whole entry): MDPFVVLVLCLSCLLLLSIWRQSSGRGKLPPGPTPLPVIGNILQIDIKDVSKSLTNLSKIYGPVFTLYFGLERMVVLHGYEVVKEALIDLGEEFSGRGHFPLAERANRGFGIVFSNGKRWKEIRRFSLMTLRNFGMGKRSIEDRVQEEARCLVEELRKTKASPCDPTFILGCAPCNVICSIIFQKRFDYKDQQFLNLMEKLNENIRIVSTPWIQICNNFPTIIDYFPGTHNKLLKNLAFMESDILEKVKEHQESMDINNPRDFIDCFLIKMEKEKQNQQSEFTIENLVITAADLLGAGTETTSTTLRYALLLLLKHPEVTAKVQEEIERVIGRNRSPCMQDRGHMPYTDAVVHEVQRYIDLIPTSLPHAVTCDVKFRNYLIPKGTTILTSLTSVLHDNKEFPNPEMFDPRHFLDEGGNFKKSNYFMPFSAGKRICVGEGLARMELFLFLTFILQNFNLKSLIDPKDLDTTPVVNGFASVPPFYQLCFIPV
CYP3A4, sequence (P08684 whole entry): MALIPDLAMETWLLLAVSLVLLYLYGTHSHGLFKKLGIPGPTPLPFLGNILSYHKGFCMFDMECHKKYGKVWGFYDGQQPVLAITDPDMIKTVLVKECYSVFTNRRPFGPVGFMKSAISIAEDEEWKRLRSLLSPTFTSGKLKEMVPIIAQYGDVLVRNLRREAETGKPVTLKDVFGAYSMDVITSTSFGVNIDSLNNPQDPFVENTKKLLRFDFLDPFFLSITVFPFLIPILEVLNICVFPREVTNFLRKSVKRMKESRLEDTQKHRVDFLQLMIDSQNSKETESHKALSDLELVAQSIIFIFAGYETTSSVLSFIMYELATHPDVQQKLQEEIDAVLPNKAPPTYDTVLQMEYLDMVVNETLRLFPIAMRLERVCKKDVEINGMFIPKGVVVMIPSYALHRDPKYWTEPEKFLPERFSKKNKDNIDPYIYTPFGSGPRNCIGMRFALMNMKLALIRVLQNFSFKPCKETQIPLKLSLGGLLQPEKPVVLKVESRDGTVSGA
T1 sequence (P16858 whole entry): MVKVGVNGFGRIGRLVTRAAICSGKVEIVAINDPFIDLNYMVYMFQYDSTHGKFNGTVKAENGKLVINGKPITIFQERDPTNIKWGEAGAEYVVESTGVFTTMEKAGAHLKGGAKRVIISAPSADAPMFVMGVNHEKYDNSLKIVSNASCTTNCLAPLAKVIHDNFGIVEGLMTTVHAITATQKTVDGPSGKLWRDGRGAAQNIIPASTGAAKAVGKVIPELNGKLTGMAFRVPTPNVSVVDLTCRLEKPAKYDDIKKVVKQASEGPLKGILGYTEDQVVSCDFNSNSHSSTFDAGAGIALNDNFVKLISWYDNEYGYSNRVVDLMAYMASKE

For the molecule `Nc1ccc(N2CCOCC2)c2nonc12` [compound 11, 7-(morpholin-4-yl)-2,1,3-benzoxadiazol-4-amine], in [1], the Papp A→B at 2 h, 10 µM was 35 ×10⁻⁶ cm/s and the basolateral-to-apical permeability (Papp B→A) at 2 h, 10 µM was found to be 7 ×10⁻⁶ cm/s. The “Caco-2 permeability in words” value with Caco-2 monolayer is reported as “highly permeable”. In addition, at GAPDH (2 μM), the GAPDH inhibition result is “failed to inhibit GAPDH”. Also, the GAPDH inhibition entry at GAPDH (50 μM) is listed as “some inhibitory effect”. Further, in the data set with tau P301S mice (10 mg kg−1 d−1, 3 months), the “complete blood count, renal and liver function tests overall” value is recorded as “all parameters were comparable with the vehicle-treated mice”; the “hematoxylin and eosin staining of major organs” value is “no major differences between vehicle-treated and drug-treated animals”; the systemic toxicity entry is recorded as “does not exhibit systemic toxicity”; the “weight of major organs (heart, liver, spleen, brain, kidney)” value is listed as “not changed”. The body weight entry with tau P301S mice (10 mg kg−1 d−1 oral gavage, 3 months) is “no significant change in body weight”. In the data set with tau P301S mice (10 mg kg−1 d−1 oral, 3 months), this molecule registered an ALB of 3.57 ± 0.06 g/dL, an ALP of 35.25 ± 28.48 U L-1, an ALT of 64.25 ± 34.60 U L-1 and a BUN of 26.75 ± 3.30 mg/dL. Besides, in the data set on tau P301S mice (10 mg kg−1 d−1 oral, 3 months), the Hemoglobin worked out at 12.7 ± 0.94 g/dL, the MCH stood at 17.53 ± 3.42 pg, the MCHC turned out to be 40.8 ± 5.07% and the Red blood cell is on record as 7.38 ± 1.15 X1012 l-1. For the same molecule, in the data set with tau P301S mice (10 mg kg−1 d−1 oral, 3 months), the TBIL came to 0.15 ± 0.17 mg/dL, the White blood cell is 1.37 ± 0.08 X109 l-1 and the platelet is reported as 491.26 ± 69.8 X109 l-1. In the data set on 5XFAD mice, the “concentrations of Aβ in plasma and brain after single dose” value was “time- and dose-dependently decreased”. For the same molecule, on CYP3A4, the inhibition at 10 min, 3 µM turned out to be 3.6% and the inhibition at 10 min, 10 µM is 8%. At CYP2C19, the inhibition at 10 min, 3 µM amounted to 4.4% and the inhibition at 10 min, 10 µM was found to be 6.8%. The concentration at 1 h in data set [2] (10 mg kg-1d-1, Compound #11 in the serum, Sample #1) worked out at 184 ng/mL. In data set [2] (10 mg kg-1d-1, Compound #11 in the serum, Sample #2), this molecule gave a concentration at 1 h of 59 ng/mL. In data set [2] (10 mg kg-1d-1, Concentration in the brain, Sample #1), the concentration at 1 h came to 206 ng/g. The molecule also registered a concentration at 1 h in data set [2] (10 mg kg-1d-1, Concentration in the brain, Sample #2) of 87 ng/g.

Take `Cc1cccc(NCc2ccc(O)c3ncccc23)c1C` [compound 12]: on δ-secretase [3] (setting [5]), the IC50 amounted to 280 ± 20 nM. Further, in data set [1], the apparent permeability from apical to basolateral (Papp A→B) at 2 h, 10 µM was determined as 1.4 ×10⁻⁶ cm/s; the apparent permeability from basolateral to apical (Papp B→A) at 2 h, 10 µM is 3.7 ×10⁻⁶ cm/s; the efflux ratio at 2 h, 10 µM turned out to be 2.7. At CYP3A4, the inhibition at 10 min, 3 µM was -2.5% and the inhibition at 10 min, 10 µM is -2.5%. For the same molecule, on CYP2C19, the inhibition at 10 min, 3 µM was found to be 13.4% and the inhibition at 10 min, 10 µM was found to be 29.4%.

As to `COc1ccc(N2CCN(C(c3ccc(N(C)C)cc3)c3nnnn3C(C)(C)C)CC2)cc1` (stereo not drawn) [compound 31], the IC50 at δ-secretase [3] (setting [5]) was 260 ± 30 nM. For the same molecule, in [1], the Papp A→B at 2 h, 10 µM amounted to 19.3 ×10⁻⁶ cm/s; the basolateral-to-apical permeability (Papp B→A) at 2 h, 10 µM worked out at 17.4 ×10⁻⁶ cm/s; the efflux ratio at 2 h, 10 µM turned out to be 0.9. Moreover, in the data set on Caco-2 monolayer, the “Caco-2 permeability in words” value is reported as “highly permeable”. Further, at CYP3A4, the inhibition at 10 min, 3 µM was -0.9% and the inhibition at 10 min, 10 µM was 18.1%. On CYP2C19, the inhibition at 10 min, 3 µM was 37.7% and the inhibition at 10 min, 10 µM stood at 55.7%.

Turning to `Cn1c(=O)[nH]c(=O)c2c1nc(S)n2CC(O)COc1ccc(Cl)cc1` (stereo not drawn) [compound 38], on δ-secretase [3] (purified active δ-secretase, read-out: IC50 / potency toward δ-secretase), the IC50 is roughly 370 nM. The IC50 at δ-secretase [3] (setting [5]) came out at 370 ± 60 nM. For the same molecule, in data set [1], the Papp A→B at 2 h, 10 µM was 1.1 ×10⁻⁶ cm/s; the Papp B→A at 2 h, 10 µM was found to be 20.3 ×10⁻⁶ cm/s; the efflux ratio at 2 h, 10 µM was determined as 18.2. In addition, the “recovery of δ-secretase activity on addition of reducing agents” value at δ-secretase [4] is “regained a substantial amount of activity”. Besides, on CYP3A4, the inhibition at 10 min, 3 µM was 7.3% and the inhibition at 10 min, 10 µM turned out to be 10.4%. In addition, at CYP2C19, the inhibition at 10 min, 3 µM is -12% and the inhibition at 10 min, 10 µM amounted to 9.5%.
